Source: paper PMC5663395, “Chemical Validation of Methionyl-tRNA Synthetase as a Druggable Target in Leishmania donovani” (ACS Infectious Diseases, 2017)
pEC50, pIC50: −log10 of the molar value.

What was measured:
LdMetRS = LdMetRS (Leishmania donovani, UniProt A0A3Q8IBX2); test: LdMetRS biochemical enzyme assay (BIOMOL Green); conditions: Table 1; read-out: LdMetRS IC50
Procedure: LdMetRS Assay Development and Kinetic Parameter Determinations
Activity of the LdMetRS enzyme was determined by monitoring levels of pyrophosphate released during the first step of the enzymatic reaction. The pyrophosphate formed was converted to two inorganic phosphate molecules using a pyrophosphatase enzyme and levels of the resulting phosphate molecules measured using the BIOMOL® Green reagent (Enzo Life Sciences) 2.
Following optimization of the assay buffer and determination of the enzyme linearity, 384-well plate based assays were carried out at room temperature in a 50 μl reaction volume containing 30 mM Tris, pH 8.0, 140 mM NaCl, 30 mM KCl, 40 mM MgCl2, 0.01% (v/v) Brij-35, 1 mM DTT, 1 U/ml pyrophosphatase, 50 nM recombinant LdMetRS, and varying concentrations of substrates. Michaelis constants for the ATP and methionine substrates were determined in an end point assay using the above buffer and enzyme conditions. Data were fitted to the modified Michaelis-Menten equations […]
Equation 1 (Hill equation): […]
Equation 2 (High substrate inhibition Michaelis-Menten equation): […]
LdMetRS Inhibitor Studies
All test compounds were solubilized in 100% DMSO to a concentration of 10 mM. To generate IC50 data for the compounds, assay ready plates containing 10-point inhibitor curves (half-log serial dilutions) were prepared using an Echo® 550 (Labcyte).
Following preparation of the inhibitor curves, assays were carried out at room temperature in clear, flat bottom, polystyrene, 384-well plates (Greiner). Each assay was performed in a 50 μl reaction volume containing 30 mM Tris; pH 8.0, 140 mM NaCl, 30 mM KCl, 40 mM MgCl2, 0.01% (v/v) Brij-35, 1 mM DTT, 1 U/ml pyrophosphatase, 50 nM recombinant LdMetRS, 50 µM methionine and 100 µM […]
Assays were performed by adding 25 μl buffer with enzyme to assay plates (with buffer only added to ‘no enzyme’ control wells) before the reaction was initiated with the addition of a 25 μl mix containing methionine, ATP and pyrophosphatase to all wells. Following a 120 min reaction at room temperature the assay was stopped with the addition of 50 μl BIOMOL® Green. The BIOMOL® Green signal was allowed to develop for 30 min before the absorbance of each well was read at 650 nm using an EnVision multilabel plate reader (PerkinElmer Life Sciences). All liquid dispensing steps were carried out using a Thermo Scientific WellMate dispenser (Matrix).
ActivityBase from IDBS (version 8.0.5.4) was used for data processing and analysis. All IC50 curve fitting was undertaken using ActivityBase XE (version 7.7.1) from IDBS. A four-parameter logistic dose-response curve was utilized with prefit used for all four parameters.
For DDD806905 Kiapp determinations, data fitting to the Morrison equation (equation 3) was carried out using GraFit v6.0 (Erithacus Software). It should be noted that data for fitting to the Morrison equation was normalised to a ‘100 µM DDD806905’ control rather than a ‘no enzyme’ control as […]
Equation 3 (Morrison equation): […]
vi = K1 −−([ ] [ ]ET+IT+Ki)−([ ] [ ]ET+IT+i)[ ] [ ]TIE4T
LdMetRS Mode of Inhibition Studies
To establish the mode of inhibition of DDD806905, data sets (generated using the BIOMOL® Green assay platform previously described) were collected by varying both the inhibitor and substrate concentrations. Using GraFit v6.0 (Erithacus Software) each data set was individually fitted to the Michaelis-Menten equation or the modified high substrate inhibition Michaelis-Menten equation described above (equation 2), and the resulting Lineweaver-Burk plots were examined for diagnostic […]
Data sets were then globally fitted to the appropriate model (with equations 4 and 5 used for […]
If more than one model appeared possible, then data were fitted to both and examined for significance using the F-test function in GraFit.

[1] = tested on: L. donovani axenic amastigotes; test: Leishmania axenic amastigote viability assay; assay type: cell-based, Leishmania donovani; conditions: Leishmania donovani; Table 1; read-out: Leishmania Axenic Amastigote EC50
Procedure: carried out as described above using 5%, 10% and 20% FBS in the media. To examine the effect of the methionine concentration on the potency of DDD806905 parasites were grown in the presence of drug and in the presence (or absence) of 20-fold excess methionine (0.3 g/l). IC50 curve fitting was undertaken in GraFit version 6.0 (Erithacus Software) using a four-parameter logistic dose-response curve (equation 6), with s the slope.
Leishmania Axenic Amastigote Assay
The Leishmania axenic amastigote assay was performed using the method published in Nühs et al 15.
Leishmania Intracellular Amastigote Assay
The intramacrophage Leishmania assay was performed using a modified version of the method described in De Rycker et al 16. […]
amphotericin B was included. Controls were as follows: columns 11 and 12: DMSO, columns 23 and 24: amphotericin B (final concentration 2 µM). 350 nl of compound was pre-dispensed into 384-well sterile intermediary plates. To the intermediary plates, 35 µl of THP-1 media was added and plates were shaken for >5 min to ensure complete mixing. THP-1 cells (8,000 per well, 50 µl) were plated into black clear-bottom 384-well plates (Corning) in presence of 20 nM phorbol 12-myristate 13- […]
in a humidified incubator for 75 h. The cells were then washed with 450 µl sterile phosphate buffered saline (PBS) supplemented with 1 mM CaCl2, 0.5 mM MgCl2, 0.1% (w/v) bovine serum albumin (PBS-A) and amastigotes were added to all wells at a multiplicity of infection of 5 (40,000 amastigotes per well). After 40 min at room temperature, plates were returned to the incubator.
Amastigotes were incubated in the presence of THP-1 macrophages for 16 h. Any remaining extracellular amastigotes were subsequently removed by washing with PBS-A followed by addition of 25 µl of the compound pre-dilutions using an Ipette-pro pipetting station (FluidX). The final dilution of each compound was 200-fold. Plates were incubated for 96 h and then washed (250 µl PBS-A) and fixed (4 % (v/v) formaldehyde-PBS, 30 min, room temperature). After fixation, the wells were washed with 250 µl PBS, stained (10 µg/ml DAPI, 0.4 µg/mL HCS Cellmask Deep Red in PBS + 0.1% (v/v) Triton X-100, 30 min, room temperature) and washed with 250 µl PBS. Finally, PBS + 0.05% (v/v) thimerosal was added to the wells, the plates were sealed and imaged on a high-content microscope (GE IN Cell 2000) using a 10x objective. Image analysis was carried out with GE IN Cell Analyzer 1000 Workstation using the “Multi Target Analysis” module. For each well, i) THP-1 cell count (cytotoxicity readout) and ii) average number of amastigotes per cell (potency readout) were […]

THP-1 lysosomes = test: Lysosomotropism assay (LysoTracker Red competition); assay type: cell-based, human; conditions: PMA-differentiated THP-1 cells, 30 min
Procedure: calculated, both in terms of pEC50 values. MIC (minimum inhibitory concentration) values are defined as the lowest concentration tested at which maximal inhibition is reached.
THP-1 cells were differentiated in 96-well plates with PMA as described above. Following differentiation the cells were treated for 30 min with dose-response curves of test compounds in presence of 100 nM LysoTracker Red DND-99 (Thermo Fisher) and 5 µg/ml Hoechst 33342. Next cells were washed 3 times with Hanks Buffered Saline Solution (Gibco) and imaged on a Perkin Elmer Operetta system. An image analysis algorithm to measure mean Lysotracker Red DND-99 intensity per cell was developed in Columbus. Mean Intensity was normalised using a no dye control (100% effect) and DMSO treated wells stained with Lysotracker Red DND-99 (0% effect control). Dose-response curves were fitted for the test compounds using a four-parameter equation (equation 5 above) and constrained to 0 and 100% where necessary.
To measure the pKa of DDD806905, a fast UV-metric method was performed using a Sirius T3 instrument (Sirius Analytical, U.K.). The calculation of the pKa was determined using the Sirius T3 refine software (Sirius Analytical, U.K.). In brief, the UV-metric pKa method is based on measuring pH during an acid-base titration and monitoring UV absorbance shift. The ionisation curve (Bjerrum curve) was then used to determine the pH where exactly 50 % of neutral and 50 % of ionised species was present. DDD806905 must be fully dissolved throughout the titration and so the titration is set to start at the pH where DDD806905 is in its fully ionised state. The appearance of precipitate was monitored throughout the experiment by a turbidity sensing device. […] The pKas of DDD806905 was determined at the pH where there was maximal change in UV absorbance with respect to pH. […]
LogD7.4 values were quantified using a Sirius T3 instrument (Sirius Analytical, U.K.). […] The instrument software calculated the pH of each data point using mass and charge balance equations and then fitted this theoretical data to the experimental data. […]

[2] = tested on: Leishmania donovani liver parasite burden; test: Mouse visceral leishmaniasis efficacy model; conditions: 30 mg/kg oral once daily for 10 days

Chain of LdMetRS (A0A3Q8IBX2 entry or part of it): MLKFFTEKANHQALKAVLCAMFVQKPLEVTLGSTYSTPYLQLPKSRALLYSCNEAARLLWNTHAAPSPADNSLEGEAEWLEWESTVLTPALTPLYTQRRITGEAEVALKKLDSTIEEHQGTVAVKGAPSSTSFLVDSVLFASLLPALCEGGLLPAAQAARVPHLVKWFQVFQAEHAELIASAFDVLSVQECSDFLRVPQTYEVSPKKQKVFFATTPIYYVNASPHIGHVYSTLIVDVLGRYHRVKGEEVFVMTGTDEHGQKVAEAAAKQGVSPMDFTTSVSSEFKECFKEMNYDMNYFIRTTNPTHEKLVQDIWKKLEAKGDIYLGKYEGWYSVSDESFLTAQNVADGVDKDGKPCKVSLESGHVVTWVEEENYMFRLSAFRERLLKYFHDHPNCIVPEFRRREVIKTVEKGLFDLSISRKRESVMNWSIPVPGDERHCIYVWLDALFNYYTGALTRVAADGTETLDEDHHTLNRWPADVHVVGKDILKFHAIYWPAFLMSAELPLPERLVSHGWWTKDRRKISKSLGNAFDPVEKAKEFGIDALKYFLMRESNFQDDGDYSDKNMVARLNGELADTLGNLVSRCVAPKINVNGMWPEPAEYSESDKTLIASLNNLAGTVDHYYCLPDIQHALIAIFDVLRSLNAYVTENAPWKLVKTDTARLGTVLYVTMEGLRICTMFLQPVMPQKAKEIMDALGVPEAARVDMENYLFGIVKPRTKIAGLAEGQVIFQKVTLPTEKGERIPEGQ

## O=c1nc(NCCCNS(=O)(=O)c2cc(Cl)cc(Cl)c2)[nH]c2ccccc12 [Compound 28]
LdMetRS
  pIC50: 5.72
[1]
  pEC50: 4.72
THP-1 lysosomes
  competition with lysotracker red accumulation in THP-1 lysosomes: does not compete with lysotracker red

## CCCCCCCCCCCCCCCCOP(=O)([O-])OCC[N+](C)(C)C [miltefosine, reference compound]
[2]
  reduction (knock-down) of liver parasite burden (LDU) vs vehicle: 99.6%
